This data set can be described thus: Particle size by laser diffraction particle size distribution meter (dry method). To be noted: HELOS&RODOS, drug substance used in the Examples. The class given is physicochemical. The source says: The above-mentioned particle sizes (undersize D50% particle size, undersize D90% particle size etc.) are values measured using a laser diffraction particle size distribution meter (dry method). For example, when a laser diffraction particle size distribution measurement apparatus HELOS & RODOS manufactured by Sympatec GmbH is used, measurement can be performed by setting the measurement range to R3 and the indication basis of the particle amount to volume basis.
The particle size of 3/2 fumarate of compound A used in the following Examples was 0.5-3 μm for undersize D50% and 1-12 μm for undersize D90% particle size, as measured by a dry method using a laser diffraction particle size distribution measurement apparatus, HELOS&RODOS, manufactured by Sympatec GmbH.

SMILES strings stand for the structures. Where a name gives a salt, the structure may show the parent alone.

Take `O=C1Nc2ccccc2C(c2ccccc2)N1C1CCN(Cc2cccc(OC(F)(F)F)c2)CC1` (single isomer, unassigned; (+)) [3/2 fumarate of compound A, (+)-3-{1-[3-(trifluoromethoxy)benzyl]piperidin-4-yl}-4-phenyl-3,4-dihydro-2(1H)-quinazolinone]: the “undersize D50% particle size” value was 0.5-3 μm and the “undersize D90% particle size” value is 1-12 μm.

The values above are taken from patent US8673353B2, “Tablet having improved elution properties” (Dainippon Sumitomo Pharma Co., Ltd, priority 2008, dated 2014).
